Assay results reported in patent publication US20240197742A1, “Therapeutic Combinations of a CD19 Inhibitor and a BTK Inhibitor” (Acerta Pharma B.V., priority 2015, published 2024).

Tested on: ID8 ovarian cancer
Test: ID8 syngeneic orthotropic ovarian cancer murine model
Assay type: in vivo, mouse
Conditions: 15 mg/kg/BID given orally
Description: Human ovarian cancer models, including the ID8 syngeneic orthotropic ovarian cancer model and other animal models, are described in Fong and Kakar, J. Ovarian Res. 2009, 2, 12; Greenaway, et al., Gynecol. Oncol. 2008, 108, 385-94; Urzua, et al., Tumour Biol. 2005, 26, 236-44; Janat-Amsbury, et al., Anticancer Res. 2006, 26, 3223-28; Janat-Amsbury, et al., Anticancer Res. 2006, 26, 2785-89. […] The results of the study are shown in FIG. 13, FIG. 14, FIG. 15, FIG. 16, FIG. 17, FIG. 18, FIG. 19, and FIG. 20.

Compound: CC#CC(=O)N1CCC[C@H]1c1nc(-c2ccc(C(=O)Nc3ccccn3)cc2)c2c(N)nccn12 [Formula (2), (S)-4-(8-amino-3-(1-(but-2-ynoyl)pyrrolidin-2-yl)imidazo[1,5-α]pyrazin-1-yl)-N-(pyridin-2-yl)benzamide]
- CD8+ T cells: increase
- immunosuppressive tumor associated Tregs: significant reduction
- B regulatory cells (Bregs) (tumor-bearing mice): significant reduction
- immunosuppressive tumor associated lymphocytes (tumor-bearing mice): significant reduction
- total B cells (tumor-bearing mice): significant reduction
- ID8 ovarian cancer growth (versus vehicle): impairs
